Where “and” joins values, the source holds several entries; their conditions need not be identical. Equal entries are not always repeated.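 96-well plates; 48 h exposure; 5 concentrations. Endpoints by linear interpolation between flanking doses. Not reached: highest tested concentration assigned. The concentration for 50% growth inhibition is given as GI50.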 Calls of active or inactive are those of the source. No stated cut-off is given here; in the data, active = GI50 up to about 1.1 µM and inactive = higher.
Tests used:
Assay in all cases: NCI tumour cell line growth inhibition, 48 h
A549 = test system: A549
RXF 393 = test system: RXF 393
SNB-19 = test system: SNB-19
U-251 = test system: U-251
SF-295 = test system: SF-295
OVCAR-8 = test system: OVCAR-8
A498 = test system: A498
HL-60 = test system: HL-60
SN12C = test system: SN12C
HCT-116 = test system: HCT-116
RPMI-8226 = test system: RPMI-8226
SF-539 = test system: SF-539
IGROV-1 = test system: IGROV-1
SW-620 = test system: SW-620
HOP-62 = test system: HOP-62
TK-10 = test system: TK-10
786-0 = test system: 786-0
OVCAR-5 = test system: OVCAR-5
SK-MEL-28 = test system: SK-MEL-28
MOLT-4 = test system: MOLT-4
LOX IMVI = test system: LOX IMVI
K562 = test system: K562
HT-29 = test system: HT-29
UACC-257 = test system: UACC-257
HOP-18 = test system: HOP-18
UO-31 = test system: UO-31
NCI-H522 = test system: NCI-H522
COLO 205 = test system: COLO 205
SNB-75 = test system: SNB-75
LXFL 529 = test system: LXFL 529
NCI-H23 = test system: NCI-H23
KM12 = test system: KM12
HCC 2998 = test system: HCC 2998
NCI-H460 = test system: NCI-H460
DLD-1 = test system: DLD-1
ACHN = test system: ACHN
NCI-H226 = test system: NCI-H226
OVCAR-3 = test system: OVCAR-3
OVCAR-4 = test system: OVCAR-4
KM-20L2 = test system: KM-20L2
HOP-92 = test system: HOP-92
Malme-3M = test system: Malme-3M
M19-MEL = test system: M19-MEL
XF498 = test system: XF498
SNB-78 = test system: SNB-78
SK-MEL-2 = test system: SK-MEL-2
EKVX = test system: EKVX
DMS-114 = test system: DMS-114
SF-268 = test system: SF-268
HCT-15 = test system: HCT-15
NCI/ADR-RES = test system: NCI/ADR-RES
MDA-MB-231 = test system: MDA-MB-231
DU-145 = test system: DU-145
T47D = test system: T47D
MCF7 = test system: MCF7
Hs-578T = test system: Hs-578T
M14 = test system: M14
SR = test system: SR
MDA-MB-435 = test system: MDA-MB-435
MDA-N = test system: MDA-N
DMS-273 = test system: DMS-273
CCRF-CEM = test system: CCRF-CEM

Which results are given for `CCOC(=O)C1S/C(=N\c2ccc(Cl)cc2)N=C1C` (stereo not drawn)?
GI50 (A549): 17.8 µM (inactive); GI50 (RXF 393): 16.6 µM (inactive); GI50 (SNB-19): 19.2 µM (inactive); GI50 (U-251): 18.8 µM (inactive); GI50 (SF-295): 19.6 µM (inactive); GI50 (OVCAR-8): 22.3 µM (inactive); GI50 (A498): 18.3 µM (inactive); GI50 (HL-60): 23 µM (inactive); GI50 (SN12C): 17.5 µM (inactive); GI50 (HCT-116): 16.6 µM (inactive); GI50 (RPMI-8226): 27.9 µM (inactive); GI50 (SF-539): 17.9 µM (inactive); GI50 (IGROV-1): 19.5 µM (inactive); GI50 (SW-620): 19.9 µM (inactive); GI50 (HOP-62): 20.2 µM (inactive); GI50 (TK-10): 28.4 µM (inactive); GI50 (786-0): 16.9 µM (inactive); GI50 (OVCAR-5): 22.1 µM (inactive); GI50 (SK-MEL-28): 20.5 µM (inactive); GI50 (MOLT-4): 16.7 µM (inactive); GI50 (LOX IMVI): 18.6 µM (inactive); GI50 (K562): 19.4 µM (inactive); GI50 (HT-29): 17.1 µM (inactive); GI50 (UACC-257): > 10 µM (inactive); GI50 (HOP-18): 23.3 µM (inactive); GI50 (UO-31): 19 µM (inactive); GI50 (NCI-H522): 17.3 µM (inactive); GI50 (COLO 205): 17.5 µM (inactive); GI50 (SNB-75): 21.3 µM (inactive); GI50 (LXFL 529): > 10 µM (inactive); GI50 (NCI-H23): 18 µM (inactive); GI50 (KM12): 18.2 µM (inactive); GI50 (HCC 2998): 17.7 µM (inactive); GI50 (NCI-H460): 23.6 µM (inactive); GI50 (DLD-1): 14.1 µM (inactive); GI50 (ACHN): 20.5 µM (inactive); GI50 (NCI-H226): 25.6 µM (inactive); GI50 (OVCAR-3): 23.6 µM (inactive); GI50 (OVCAR-4): 24.7 µM (inactive); GI50 (KM-20L2): 19.2 µM (inactive); GI50 (HOP-92): 15.9 µM (inactive); GI50 (Malme-3M): 19.9 µM (inactive); GI50 (M19-MEL): 17.3 µM (inactive); GI50 (XF498): 20 µM (inactive); GI50 (SNB-78): 29.2 µM (inactive); GI50 (SK-MEL-2): 22.6 µM (inactive); GI50 (EKVX): 21.4 µM (inactive); GI50 (DMS-114): 23.8 µM (inactive); GI50 (SF-268): 17 µM (inactive); GI50 (HCT-15): 16.1 µM

What does the source list for `CSc1nc(C)c(Br)c(=O)n1C1OC(COC(C)=O)C(OC(C)=O)C(OC(C)=O)C1OC(C)=O` (stereo not drawn)?
GI50 (NCI/ADR-RES): > 100 µM (inactive); GI50 (RXF 393): 20.5 µM (inactive) and 19.9 µM (inactive); GI50 (U-251): 39.1 µM (inactive) and 22.4 µM (inactive); GI50 (SF-295): 24.2 µM (inactive) and 26.9 µM (inactive); GI50 (HL-60): > 100 µM (inactive); GI50 (SN12C): > 100 µM (inactive); GI50 (RPMI-8226): > 100 µM (inactive); GI50 (MDA-MB-231): 63.8 µM (inactive); GI50 (DU-145): > 100 µM (inactive); GI50 (SW-620): > 100 µM (inactive); GI50 (HOP-62): 26.8 µM (inactive) and 22 µM (inactive); GI50 (T47D): > 100 µM (inactive); GI50 (OVCAR-5): > 100 µM (inactive) and 94.2 µM (inactive); GI50 (MOLT-4): > 100 µM (inactive); GI50 (LOX IMVI): > 100 µM (inactive); GI50 (MCF7): > 100 µM (inactive); GI50 (K562): > 100 µM (inactive); GI50 (HT-29): > 100 µM (inactive); GI50 (HOP-18): 60.4 µM (inactive); GI50 (COLO 205): > 100 µM (inactive); GI50 (KM12): > 100 µM (inactive); GI50 (HCC 2998): > 100 µM (inactive); GI50 (Hs-578T): 42.9 µM (inactive); GI50 (NCI-H460): > 100 µM (inactive) and 97.1 µM (inactive); GI50 (DLD-1): > 100 µM (inactive); GI50 (M14): > 100 µM (inactive); GI50 (OVCAR-3): > 100 µM (inactive); GI50 (SR): > 100 µM (inactive); GI50 (MDA-MB-435): > 100 µM (inactive); GI50 (MDA-N): > 100 µM (inactive); GI50 (DMS-273): 27.7 µM (inactive); GI50 (KM-20L2): > 100 µM (inactive); GI50 (HOP-92): 20.1 µM (inactive) and 13.6 µM (inactive); GI50 (CCRF-CEM): > 100 µM (inactive); GI50 (XF498): 21.2 µM (inactive); GI50 (SK-MEL-2): 56.5 µM (inactive); GI50 (SF-268): 34.1 µM (inactive) and 19.6 µM (inactive); GI50 (HCT-15): > 100 µM

Source: ChEMBL document CHEMBL1201862, “PubChem BioAssay data set” (2004)
